Assay results from patent publication US10858365B2, “Triazolo-pyrimidine compounds and uses thereof” (Dizal (Jiangsu) Pharmaceutical Co., Ltd., priority 2018, dated 2020).

Columns and labels:
hA2a [1] = biological target: T1, hA2a (Homo sapiens (Human), UniProt P29274); assay: cAMP inhibition assay in hA2a/CHO cells; format: cell-based; conditions: adenosine stimulation, read-out: cAMP & FLIPR IC50 (nM) hA2a
Method in brief: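 CHO cells expressing human A2a, human A2b or mouse A2a, 5×10^3 cells/well, pre-incubated with compound 30 min at 37 °C, then stimulated with […] adenosine 30 min at 37 °C. cAMP read after 60 min room-temperature incubation with detection reagent.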

hA2b = hA2b (Homo sapiens (Human), UniProt P29275); assay: cAMP inhibition assay in hA2b/CHO cells; format: cell-based; conditions: adenosine stimulation, read-out: cAMP & FLIPR IC50 (nM) hA2b
Chain of hA2b (P29275 whole entry): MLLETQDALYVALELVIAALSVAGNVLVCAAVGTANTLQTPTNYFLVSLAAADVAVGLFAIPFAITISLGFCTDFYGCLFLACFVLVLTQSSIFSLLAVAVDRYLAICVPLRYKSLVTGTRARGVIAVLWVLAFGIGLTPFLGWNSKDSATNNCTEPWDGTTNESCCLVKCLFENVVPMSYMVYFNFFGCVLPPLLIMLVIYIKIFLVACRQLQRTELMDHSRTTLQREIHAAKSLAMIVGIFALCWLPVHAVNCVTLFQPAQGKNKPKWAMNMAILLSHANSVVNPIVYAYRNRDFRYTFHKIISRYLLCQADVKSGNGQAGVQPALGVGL
Description: (§1) hA2a/CHO, hA2b/CHO and mA2a/CHO (Genscript) were plated at 5×10^3 cells/well into 384-well polystyrene plates at the day of experiment. Compounds were pre-incubated with cells for 30 min at 37° C., 5% CO2. Then […] adenosine was added to the cells and incubated for 30 min at 37° C., 5% CO2. Detection reagent (CISBIO) was added and the plates were incubated for 60 min at room temperature. The signal was captured by Envision.

mA2a = mA2a (Mus musculus (Mouse), UniProt Q60613); assay: cAMP inhibition assay in mA2a/CHO cells; format: cell-based; conditions: adenosine stimulation, read-out: cAMP & FLIPR IC50 (nM) mA2a
Chain of mA2a (Q60613 whole entry): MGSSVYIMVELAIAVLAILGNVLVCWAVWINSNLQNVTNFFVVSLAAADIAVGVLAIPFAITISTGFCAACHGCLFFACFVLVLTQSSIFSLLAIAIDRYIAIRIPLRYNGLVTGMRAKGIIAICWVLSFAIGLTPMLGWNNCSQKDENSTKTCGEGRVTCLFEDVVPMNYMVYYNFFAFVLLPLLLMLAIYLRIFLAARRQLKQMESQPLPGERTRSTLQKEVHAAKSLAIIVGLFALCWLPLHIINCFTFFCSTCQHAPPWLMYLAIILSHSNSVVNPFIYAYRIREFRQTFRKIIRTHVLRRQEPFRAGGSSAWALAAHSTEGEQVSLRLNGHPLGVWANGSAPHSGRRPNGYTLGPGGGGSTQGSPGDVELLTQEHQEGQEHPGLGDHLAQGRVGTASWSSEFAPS
Description: as §1

hA1 [2] = biological target: T2, hA1 (Homo sapiens (Human), UniProt P30542); assay: FLIPR inhibition assay in hADORA1/CHO (hA1 expressing) cells; format: cell-based; conditions: hADORA1/CHO cells, FLIPR calcium, adenosine stimulation; read-out: cAMP & FLIPR IC50 (nM) hA1
T2 sequence (P30542 whole entry): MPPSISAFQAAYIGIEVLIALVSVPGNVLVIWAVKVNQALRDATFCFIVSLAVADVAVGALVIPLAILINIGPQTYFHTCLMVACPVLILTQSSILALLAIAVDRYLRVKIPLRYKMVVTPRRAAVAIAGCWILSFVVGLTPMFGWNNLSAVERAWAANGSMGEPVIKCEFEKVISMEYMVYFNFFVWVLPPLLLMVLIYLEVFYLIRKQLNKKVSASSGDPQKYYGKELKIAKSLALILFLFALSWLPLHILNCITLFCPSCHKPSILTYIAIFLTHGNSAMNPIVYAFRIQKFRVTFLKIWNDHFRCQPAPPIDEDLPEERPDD
Method in brief: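 CHO cells expressing human A1 were plated at 1×10^4 cells/well the day before, then loaded with FLIPR Calcium 5 dye for 60 min at 37 °C, 5% CO2. Compounds were added at several concentrations for 400 s before stimulation with […] adenosine. The calcium signal was recorded by FLIPR.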

hA3 = hA3 (Homo sapiens (Human), UniProt P0DMS8); assay: cAMP & FLIPR inhibition, hA3 over-expressing cell line; format: cell-based
Chain of hA3 (P0DMS8 whole entry): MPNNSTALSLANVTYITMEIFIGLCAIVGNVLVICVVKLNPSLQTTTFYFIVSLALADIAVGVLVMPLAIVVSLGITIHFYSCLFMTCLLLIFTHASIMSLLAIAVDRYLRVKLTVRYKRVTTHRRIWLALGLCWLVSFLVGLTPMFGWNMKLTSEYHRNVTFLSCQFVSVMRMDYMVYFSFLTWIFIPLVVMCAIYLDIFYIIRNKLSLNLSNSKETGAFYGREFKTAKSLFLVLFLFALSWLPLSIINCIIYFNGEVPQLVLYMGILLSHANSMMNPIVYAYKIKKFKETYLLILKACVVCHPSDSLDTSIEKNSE
From the text: FLIPR™ and cAMP inhibition activities of exemplary compounds in different adenosine receptor over-expressing cell lines are shown in Table 4 below.

hA2a [3] = biological target: T1, hA2a; assay: Radioligand binding to hA2a membrane ([3H]-CGS21680); conditions: [3H]-CGS21680, 90 min at 25° C., read-out: Binding Affinity (IC50 nM) hA2a
Description: (§2) Binding affinity and specificities of the compounds against different subtype of human adenosine receptors (hA1, hA2A, hA2B and hA3) were characterized with cell membrane chromatography binding analysis.
(§3) The compounds at different concentrations were incubate with hA2a membrane (from PerkinElmer) and [^3H]-CGS21680 for 90 min at 25° C., meanwhile 100 μL 0.5% PEI solution was added into […]-96 GF/B filter plate for 60 min at 4° C., then […]-96 GF/B filter plate was washed twice with 50 ml wash buffer, the membrane mix was transferred into […]-96 GF/B filter plate, and the filter plate was washed 4 times before incubated at 55° C. for 10 min. At last, […] ULTIMA GOLD was added into each well, and CPM was read by TopCount.
(§4) The empty boxes in the tables below indicate data not available.

hA1 [4] = biological target: T2, hA1; assay: Radioligand binding to hA1 membrane ([3H]-DPCPX); conditions: 50 min at 25° C., read-out: Binding Affinity (IC50 nM) hA1
Description: as §2
as §3, with “hA1” for “hA2a”, “[^3H]-8-Cyclopentyl-1,3-dipropylxanthine (DPCPX)” for “[^3H]-CGS21680”, “50” for “90”
as §4

T1 sequence (P29274 whole entry): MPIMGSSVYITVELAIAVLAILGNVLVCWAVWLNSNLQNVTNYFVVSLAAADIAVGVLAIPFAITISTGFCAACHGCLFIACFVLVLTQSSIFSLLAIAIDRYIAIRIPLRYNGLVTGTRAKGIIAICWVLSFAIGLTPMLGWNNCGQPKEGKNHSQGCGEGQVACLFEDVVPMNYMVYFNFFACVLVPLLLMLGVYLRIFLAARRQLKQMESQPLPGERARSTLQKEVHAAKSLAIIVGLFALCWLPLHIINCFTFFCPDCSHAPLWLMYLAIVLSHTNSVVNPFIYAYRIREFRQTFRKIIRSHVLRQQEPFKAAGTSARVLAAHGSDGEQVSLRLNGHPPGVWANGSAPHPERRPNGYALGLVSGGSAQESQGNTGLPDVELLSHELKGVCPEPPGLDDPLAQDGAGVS

| SMILES | IC50 (hA2a [1]) [nM] | IC50 (hA2b) [nM] | IC50 (mA2a) [nM] | IC50 (hA1 [2]) [nM] | IC50 (hA3) [nM] | IC50 (hA2a [3]) [nM] | IC50 (hA1 [4]) [nM] |
| --- | --- | --- | --- | --- | --- | --- | --- |
| Cc1cc(-c2c(-c3ccc(F)cc3)nc(N)n3nc(Cc4ncccc4F)nc23)ccn1 [Example 2, 7-(4-fluorophenyl)-2-((3-fluoropyridin-2-yl)methyl)-8-(2-methylpyridin-4-yl)-[l,2,4]triazolo[l,5-c]pyrmidin-5-amine] | 59 | 73 | 59 | 23 | > 10000 | – | – |
| Nc1nc(-c2ccc(F)cc2)c(-c2ccnc(Cl)c2)c2nc(Cc3ncccc3F)nn12 [Example 3, 8-(2-chloropyridin-4-yl)-7-(4-fluorophenyl)-2-((3-fluoropyridin-2-yl)methyl)-[1,2,4]triazolo[1,5-c]pyrmidin-5-amine] | 56 | 65 | 70 | 42 | > 10000 | – | – |
| Nc1nc(-c2ccc(F)cc2)c(-c2ccnnc2)c2nc(Cc3c(F)cccc3F)nn12 [Example 6, 2-(2,6-difluorobenzyl)-7-(4-fluorophenyl)-8-(pyridazin-4-yl)-[1,2,4]triazolo[1,5-c]pyrimidin-5-amine] | 63 | 17 | 182 | 21 | > 10000 | – | – |
| Cc1cc(-c2c(-c3ccc(F)cc3)nc(N)n3nc(Cc4cscn4)nc23)ccn1 [Example 7, 7-(4-fluorophenyl)-8-(2-methylpyridin-4-yl)-2-[(1,3-thiazol-4-yl)methyl]-[1,2,4]triazolo[1,5-c]pyrimidin-5-amine] | 102 | 1600 | 209 | 23 | > 10000 | – | – |
| Cc1cc(-c2c(-c3ccc(F)cc3)nc(N)n3nc(Cc4cccc(Cl)c4)nc23)ccn1 [Example 8, 2-[(3-chlorophenyl)methyl]-7-(4-fluorophenyl)-8-(2-methylpyridin-4-yl)-[1,2,4]triazolo[1,5-c]pyrimidin-5-amine] | 59 | 2950 | 98 | 162 | > 10000 | – | – |
| Cc1cc(-c2c(-c3ccc(F)cc3)nc(N)n3nc(Cc4nccs4)nc23)ccn1 [Example 11, 7-(4-fluorophenyl)-8-(2-methylpyridin-4-yl)-2-(thiazol-2-ylmethyl)-[1,2,4]triazolo[1,5-c]pyrimidin-5-amine] | 34 | 219 | 78 | 9.7 | > 10000 | – | – |
| Cc1cc(-c2c(-c3ccc(F)cc3)nc(N)n3nc(C(C)c4c(F)cccc4F)nc23)ccn1 (stereo not shown) [Example 12, 2-[1-(2,6-difluorophenyl)ethyl]-7-(4-fluorophenyl)-8-(2-methylpyridin-4-yl)-[1,2,4]triazolo[1,5-c]pyrimidin-5-amine] | 46 | 5000 | 316 | 214 | > 10000 | – | – |
| Cc1cc(-c2c(-c3ccc(F)cc3)nc(N)n3nc(Cc4c(F)cccc4F)nc23)c(C)cn1 [Example 13, 2-[(2,6-difluorophenyl)methyl]-8-(2,5-dimethylpyridin-4-yl)-7-(4-fluorophenyl)-[1,2,4]triazolo[1,5-c]pyrimidin-5-amine] | 11 | 81 | 56 | 153 | > 10000 | – | – |
| Cn1cc(-c2c(-c3ccc(C(F)F)cc3)nc(N)n3nc(Cc4ncccc4F)nc23)ccc1=O [Example 41, 5-(5-amino-7-(4-(difluoromethyl)phenyl)-2-((3-fluoropyridin-2-yl)methyl)-[1,2,4]triazolo[1,5-c]pyrimidin-8-yl)-1-methylpyridin-2(1H)-one] | 70 | 259 | 189 | 17 | – | 3.4 | 2.2 |
| COc1ccc(-c2nc(N)n3nc(Cc4ncccc4F)nc3c2-c2ccc(=O)n(C)c2)cc1 [Example 61, 5-(5-amino-2-((3-fluoropyridin-2-yl)methyl)-7-(4-methoxyphenyl)-[1,2,4]triazolo[1,5-c]pyrimidin-8-yl)-1-methylpyridin-2(1H)-one] | 28 | 122 | 42 | 25 | – | 4.2 | 1.7 |
| Cn1cc(-c2c(-c3ccc(C(F)(F)F)cc3)nc(N)n3nc(Cc4ncccc4F)nc23)ccc1=O [Example 62, 5-(5-amino-2-((3-fluoropyridin-2-yl)methyl)-7-(4-(trifluoromethyl)phenyl)-[l,2,4]triazolo[l,5-c]pyrimidin-8-yl)-l-methylpyridin-2(1H)-one] | 184 | 602 | 318 | 27 | – | 5.2 | 5.1 |
| Cc1c(-c2c(-c3ccc(F)cc3)nc(N)n3nc(Cc4ncccc4F)nc23)ccc(=O)n1C [Example 66, 5-(5-amino-7-(4-fluorophenyl)-2-((3-fluoropyridin-2-yl)methyl)-[1,2,4]triazolo[1,5-c]pyrimidin-8-yl)-1,6-dimethylpyridin-2(1H)-one] | 31 | 109 | 346 | 69 | – | 7.2 | 46 |
| Cn1cc(-c2c(-c3cccc(Cl)c3)nc(N)n3nc(Cc4ncccc4F)nc23)ccc1=O [Example 70, 5-(5-amino-7-(3-chlorophenyl)-2-((3-fluoropyridin-2-yl)methyl)-[1,2,4]triazolo[1,5-c]pyrimidin-8-yl)-l-methylpyridin-2(lH)-one] | 5.5 | 68 | 13 | 14 | – | 4.1 | 0.8 |
| COc1cccc(-c2nc(N)n3nc(Cc4ncccc4F)nc3c2-c2ccc(=O)n(C)c2)c1 [Example 77, 5-(5-amino-2-((3-fluoropyridin-2-yl)methyl)-7-(3-methoxyphenyl)-[1,2,4]triazolo[1,5-c]pyrimidin-8-yl)-1-methylpyridin-2(1H)-one] | 6.7 | 51 | 17 | 13 | – | 3.6 | 1.4 |
| Nc1nc(-c2ncco2)c(-c2ccnc(OC(F)F)c2)c2nc(Cc3c(F)cccc3F)nn12 [Example 85, 2-(2,6-difluorobenzyl)-8-(2-(difluoromethoxy)pyridin-4-yl)-7-(oxazol-2-yl)-[1,2,4]triazolo[1,5-c] pyrimidin-5-amine] | 15 | 48 | 11 | 27 | – | 5.5 | 5.4 |
| Nc1nc(-c2ncco2)c(-c2ccnc(OC(F)F)c2)c2nc(Cc3ncccc3F)nn12 [Example 86, 8-(2-(difluoromethoxy)pyridin-4-yl)-2-((3-fluoropyridin-2-yl)methyl)-7-(oxazol-2-yl)-[1,2,4]triaz olo[1,5-c]pyrimidin-5-amine] | 71 | 83 | 48 | 59 | – | 8.3 | 21 |
| Nc1nc(-n2nccn2)c(-c2ccc3nccn3c2)c2nc(Cc3ncccc3F)nn12 [Example 94, 2-[(3-fluoropyridin-2-yl)methyl]-8-[imidazo[1,2-a]pyridin-6-yl]-7-(2H-1,2,3-triazol-2-yl)-[1,2,4]triazolo[1,5-c]pyrimidin-5-amine] | 7.7 | 94 | 20 | 41 | – | 3.5 | 52 |
